From US20210269453A1, “Bryoid Compositions, Methods of Making and Use Thereof” (Aphios Corporation, priority 2018, published 2021)

Test system: alpha-secretase
Test: Effect of purified Bryoids on alpha-secretase activity in SHSY-5Y neuroblastoma cells (FIG. 10)
Type: cell-based
Settings: 10-^9M, FIG. 10, relative to Bryostatin-1
Description: FIG. 10 depicts the effect of Bryostatin-1 and different Bryoids at 10-^9M on alpha-secretase activity in SHSY-5Y neuroblastoma cells;
Purified Bryoids at 10-^9M are shown to increase alpha-secretase activity in SHSY-5Y neuroblastoma cells in FIG. 10.

Row | Compound | alpha-secretase activity
1 | CCC/C=C/C=C/C(=O)O[C@H]1[C@H]2C=C3C[C@H]([C@@H](C)O)OC(=O)C[C@H](O)C[C@@H]4C[C@H](OC(C)=O)C(C)(C)[C@](O)(C[C@@H]5C/C(=C\C(=O)OC)C[C@H](/C=C/C(C)(C)[C@]1(OC(=O)C2)O3)O5)O4 [Bryoid B3, Bryostatin-3] | improve the production of alpha-secretase over Bryostatin-1
2 | bryostatin-3 26-ketone [Bryoid B16] | improve the production of alpha-secretase over Bryostatin-1
